# Assay results as given in patent EP0049049A1, “5-Amino-tetrazole derivatives, processes for their preparation and pharmaceutical compositions containing them” (GLAXO GROUP LIMITED, priority 1980, dated 1982).
# Test system: perfused rat stomach
# Experiment: perfused rat stomach test (inhibition of gastric acid secretion stimulated via histamine receptors)
# Type: in vivo
# Settings: not given
# Excerpt: Certain novel heterocyclic derivatives have now been found which have potent activity as H2-antagonists. […] Certain compounds according to the invention have the advantage of an extended duration of action .
row,Structure (SMILES),ED50
1,"CN(C)Cc1cc(CSCCNc2nnnn2C)cs1 [5(b), N-[2-[[5-(dimethylamino)methyl-3-thienylmethyl]thio]ethyl]-1-methyl-lH-tetrazol-5-amine]",less than 0.22 mg/kg

# Same assay, conditions: read-out: ED50
row,Structure (SMILES),ED50 [mg/kg]
1,"OCCn1nnnc1NCCCOc1cccc(CN2CCCCC2)c1 [Example 4, 5-[[3-[3-(1-piperidinylmethyl)phenoxy]propyl]amino]-1H-tetrazol-1-(2-ethanol) hydrate (4 : 1)]",< 0.22
2,"CN(C)Cc1cccc(OCCCNc2nnnn2C)c1 [l(d), l-methyl-N-[[3-[3-(dimethylamino)methyl]phenoxy]propyl]-lH-tetrazol-5-amine]",< 0.22
3,"CCCCCCNCc1cccc(OCCCNc2nnnn2C)c1 [7(b), N-[3-[3-[(hexylamino)methyl]phenoxy]propyl]-1-methyl-1H-tetrazol-5-amine hydrate (4:1)]",< 0.22
4,"CC(C)n1nnnc1NCCCCOc1cccc(CN2CCCCC2)c1 [1(c), l-(l-methylethyl)-N-[4-[3-(1-piperidinylmethyl)phenoxy]butyl]-1H-tetrazol-5-amine]",< 0.22
5,"Cn1nnnc1NCCCOc1cccc(CN2CCCCC2)c1 [l(a), 1-Methyl-N-[3-[3-(1-piperidinylmethyl)phenoxy]propyl]-1H-tetrazol-5-amine]",< 0.22
